This experiment addresses T1, LecB (Pseudomonas aeruginosa, UniProt Q9HYN5).
T1 construct: purified LecB overexpressed in P. aeruginosa (lecB from PAO1, pJNLecB); homotetramer of 114 amino acid monomers
Put plainly: ITC ([…] K, three titrations). In kind it is binding.

This is an account of results in paper PMC6522473, “The Pseudomonas aeruginosa lectin LecB binds to the exopolysaccharide Psl and stabilizes the biofilm matrix” (Nature Communications, 2019).

T1 sequence (Q9HYN5 entry or part of it): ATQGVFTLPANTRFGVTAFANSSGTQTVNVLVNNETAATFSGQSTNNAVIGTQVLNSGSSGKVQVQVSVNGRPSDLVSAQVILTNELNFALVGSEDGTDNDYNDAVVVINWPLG

In the case of `OC[C@H]1O[C@H](O[C@H]2[C@H](O)[C@@H](CO)OC(O)[C@H]2O)[C@@H](O)[C@@H](O)[C@@H]1O` (stereo partly drawn) [α-1,3′ mannobiose], the Kd was determined as 33.6 ± 7.18 µM. The compound `OC[C@H]1O[C@H](O[C@@H]2C(O)O[C@H](CO)[C@@H](O)[C@@H]2O)[C@@H](O)[C@@H](O)[C@@H]1O` (stereo partly drawn) [α-1,2′ mannobiose] had an equilibrium dissociation constant (Kd) of 26.6 ± 2.61 µM.
